# Experimental data: patent US6080871A, “Sulfonamides and sulfamides as H3 receptor antagonists” (James Black Foundation Limited, priority 1996, dated 2000)
# Where two headings read alike, the source gives them in different places.
# Tests used:
# H3 receptor = target: T1, H3 receptor (Cavia porcellus, UniProt Q9JI35); assay: H3 receptor bioassay (functional assay), guinea pig ileal longitudinal muscle myenteric plexus; format: cell-based; details: electrically stimulated guinea pig ileum; for Kb: antagonism of R-(α)-methylhistamine E/[A] curve, Schild's methods, variance ±0.15 log units, read-out: pKB (functional assay) (converted)
# T1 construct: the longitudinal muscle layer and adhering myenteric plexus was teased away; from tissue; host or cells: ileal longitudinal muscle with adhering myenteric plexus of male Dunkin-Hartley guinea pigs
# Description: The biological activity of the compounds of the examples was measured using the ileal longitudinal muscle, myenteric plexus assay described by Paton and Aboo Zar (J. Physiol. 194, 13-33 (1968)). Male Dunkin-Hartley guinea pigs (250-300 g) were employed. Briefly, a 50 cm portion of ileum proximal to the caecum was removed, after discarding the terminal 20 cm. Ileal segments (3 cm) were cleaned by passing Krebs-Henseleit buffer containing 3 μM mepyramine gently through the ileum using a Pasteur pipette (size: 13.8 cm length, 0.65 cm diameter). To avoid unnecessary damage to the tissue, Krebs-Henseleit buffer was passed through the ileal segment, while it was lying horizontally on a petri dish. Therefore, the ileum was not over-distended and the buffer flowed through with ease. Each segment was then passed over a Pasteur pipette and the longitudinal muscle layer and adhering myenteric plexus was teased away using moist cotton wool, by stroking tangentially away from the mesenteric attachment. The tissues were suspended in 20 ml organ baths containing Krebs-Henseleit buffer at 37±1° C. and gassed with […]. The tissues were ligated to two parallel stainless steel wires, situated between two platinum electrodes (0.76 cm length, 0.06 cm diameter). All measurements were recorded isometrically (Grass FTO3 transducer). Following an initial loading tension of 1 g, the tissues were stimulated with electrical pulses at a frequency of 0.1 Hz and a pulse duration of 0.5msec, as described by Kosterlitz & Watt (1968). Initially, the tissues were stimulated at supramaximal (1.3 fold times maximal) voltage for a period of 30 min and then the tissues were washed and re-stimulated. A "sighter dose" of the selective histamine H3 -receptor agonist, R-(α)-methylhistamine(0.3 μM) (Arrang et al., 1987), was administered. Upon generation of response, the "sighter dose" was removed from the tissues by "washout" (6 washes over 60 min) and during this period the electrical stimulation was switched off. The tissues were then re-stimulated and allowed to stabilise prior to the addition of drug treatments, which were allocated on a randomised block basis to the organ baths. Following the incubation period, a single cumulative E/[A] curve was obtained. The experimental E/[A] curve data was expressed as the percentage inhibition of the peak height of electrically-stimulated contraction. Antagonist affinity values were calculated from the degree of rightward shift of the R-(α)-methylhistamine E/[A] curves using Schild's methods (Arunlatcshama & Schild, 1949).
# (§1) Typical variance in the functional assay is ±0.15 log units. Typical variance in the binding assay is ±0.12 log units. This means that if the discrepancy between the two assays is greater than about 0.5 log units, then this difference on average is significant.
# Histamine H3 = target: T2, Histamine H3 (Cavia porcellus, UniProt Q9JI35); assay: Histamine H3 radioligand binding assay, [3H]-R-α-methylhistamine, guinea pig ileum longitudinal muscle myenteric plexus membranes
# T2 construct: ileum longitudinal muscle myenteric plexus membranes; from tissue; host or cells: ileum longitudinal muscle myenteric plexus membranes of male Dunkin Hartley guinea pigs
# Description: Histamine H3 Radioligand Binding Assay
# Male Dunkin Hartley guinea pigs (200-300 g) were used. The small intestine was rapidly removed (cut ~5 cm from caecum and 5 cm from stomach) and placed in ice-cold 20 mM Hepes-NaOH buffer (pH7.4 at 21±3° C.). The tissue was cut into ~10 cm segments, flushed through with ice-cold 20 mM Hepes-NaOH buffer and placed in a beaker containing fresh buffer at 4° C. 10 cm segments of ileum were threaded onto a glass pipette and the longitudinal muscle myenteric plexus was peeled away from the circular muscle using damp cotton-wool. Longitudinal muscle myenteric plexus was immediately placed in ice-cold Viaspan® solution (~100 ml for tissue from 3 guinea pigs) and placed in the refrigerator for 24 hours.
# Pre-soaked tissue was weighed and minced with scissors. The tissue was then homogenised in Viaspan® using a polytron (Kinematica AG; PT-DA 3020/2TS, 3×~1-2 s). 50 ml of 500 mM Tris HCl (pH6.9 at 21±3° C.) was added to the tissue and the mixture centrifuged at 39,800×g for 12 min at 4° C. The supernatant was discarded and rehomogenised in 100 ml ice-cold 20 mM Hepes-NaOH buffer (pH7.4 at 21±3° C.) using a teflon-in-glass homogeniser (setting 10; 3×). The homogenate was recentrifuged at 39,800×g and the pellet resuspended in 20 mM Hepes-NaOH buffer (pH7.4 at 21±3° C.), to a tissue concentration of 50 mg.ml^-1, using a polytron (Brinkman, PT10, 3×~1 s).
# Guinea pig ileum longitudinal muscle myenteric plexus membranes (400 μl) were incubated for 165 min at 21±3° C. in a final volume of 500 μl with 20 mM Hepes-NaOH buffer containing [^3 H]-R-α-methylhistamine (50 μl; 3 nM) and competing compound. Total and non-specific binding of [^3 H]-R-α-methylhistamine were defined using 50 μl of buffer and 50 μl of 10 μM thioperamide, respectively. The assay was terminated by rapid filtration through Whatman GF/B filters, presoaked (2 hr) in 0. 1% polyethyleneimine,using a Brandell Cell Harvester. The filters were washed (3×3 ml) with ice-cold 50 mM Tris-HCl (pH6.9 at 21±3° C.), transferred into scintillation vials, 5 ml liquid scintillation cocktail was added and after 4 hours the bound radioactivity was determined by counting (4 min) in a Beckman liquid scintillation counter.
# Data are analysed using GraphPad prism and the general equation for a competition curve with variable Hill slope (nH).
# Y=Non-specific binding+(Total binding-Non-specific binding)/1+10^((logIC.sbsp.50^-X).n.sbsp.H^)
# X is the log concentration of competing compound, Y is the binding obtained at each concentration of X, pIC50 is the concentration of the competitor required to compete for half of the specific binding.
# The IC50 is converted to the K1 using the Cheng Prusoff equation, […]
# IC50 is the concentration of competitor required to compete for half the specific binding, L is the radioligand concentration used, KD is the equilibrium dissociation constant for the radioligand determined by saturation experiments.
# as §1
# [1] = 3 nM [3H]-R-α-methylhistamine, 165 min, 21±3° C., Cheng Prusoff, variance ±0.12 log units
# [2] = 3 nM [3H]-R-α-methylhistamine, 165 min, 21±3° C., Cheng Prusoff, variance ±0.12 log units, read-out: pK1 (binding assay) (converted)
# T2 sequence (Q9JI35 whole entry): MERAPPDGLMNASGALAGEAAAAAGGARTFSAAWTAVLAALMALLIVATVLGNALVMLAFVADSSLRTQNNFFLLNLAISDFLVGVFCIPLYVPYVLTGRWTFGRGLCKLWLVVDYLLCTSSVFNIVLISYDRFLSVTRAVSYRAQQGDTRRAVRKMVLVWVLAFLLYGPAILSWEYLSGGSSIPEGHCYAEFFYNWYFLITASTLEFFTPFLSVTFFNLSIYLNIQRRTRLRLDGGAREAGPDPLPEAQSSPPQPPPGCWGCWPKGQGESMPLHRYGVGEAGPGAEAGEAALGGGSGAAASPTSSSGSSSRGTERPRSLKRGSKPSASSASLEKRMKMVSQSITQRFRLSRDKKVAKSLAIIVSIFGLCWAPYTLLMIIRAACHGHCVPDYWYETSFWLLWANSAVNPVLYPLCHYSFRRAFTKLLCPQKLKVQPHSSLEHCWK
# T1 sequence (Q9JI35 whole entry): as above
Compound,Kb (H3 receptor) [µM],pK1 (binding assay) (Histamine H3; [1]),Ki (Histamine H3; [2]) [µM],Ki (Histamine H3) [µM],"EC50 (H3 receptor; printed in the pKB column, read-out: p[A]50 (functional assay) (converted)) [µM]"
O=S(=O)(NCCCCCCCc1c[nH]cn1)c1ccc2ccccc2c1 [Example 29],0.132,7.40,–,–,–
"O=S(=O)(NCCCCc1c[nH]cn1)NCc1cccc(Cl)c1 [Example 42, N-[4-(4(5)-Imidazoyl)butyl]-N'-(3-chlorophenyl)methyl-sulfamide]",0.0138,–,0.0162,–,–
"O=S(=O)(Cc1ccc(Cl)cc1)NCCCCc1c[nH]cn1 [Example 10, N-[4-(4(5)-Imidazoyl)butyl]-(4-chlorophenyl)methanesulfonamide]",0.0024,8.53,–,–,–
"O=S(=O)(NCCCCCc1c[nH]cn1)NCc1ccc(Cl)cc1 [Example 12, N-[5-(4(5)-Imidazoyl)pentyl]-N'-(4-chlorophenyl)methyl-sulfamide]",0.00631,8.23,–,–,–
"O=S(=O)(NCCCc1c[nH]cn1)NCCc1ccc(Cl)cc1 [Example 56, N-[3-(4(5)-Imidazoyl)propyl]-N'-2-(4-chlorophenyl)ethyl-sulfamide]",0.447,–,0.138,–,–
"O=S(=O)(/C=C/c1ccccc1)NCCc1c[nH]cn1 [Example 20, (E)-N-[2-(4(5)-Imidazoyl)ethyl]-2-phenylethenesulfonamide]",> 3.16,7.26,–,–,–
"O=S(=O)(NCCCCCCc1c[nH]cn1)NCc1ccc(C(F)(F)F)cc1 [Example 60, N-[6-(4(5)-Imidazoyl)hexyl]-N'-(4-(trifluoromethyl)phenyl)methyl-sulfamide]",0.0145,–,0.00457,–,–
"O=S(=O)(NCCCCc1c[nH]cn1)NCc1ccccc1Cl [Example 43, N-[4-(4(5)-Imidazoyl)butyl]-N'-(2-chlorophenyl)methyl-sulfamide]",0.38,–,0.0562,–,–
"O=S(=O)(NCCCCCc1c[nH]cn1)NCc1ccc(C(F)(F)F)cc1 [Example 63, N-[5-(4(5)-Imidazoyl)pentyl]-N'-(4-(trifluoromethyl)phenyl)methyl-sulfamide]",0.00407,–,0.00661,–,–
O=S(=O)(CCc1ccc(Cl)cc1)NCCCCc1c[nH]cn1 [Example 55],0.00603,–,0.00776,–,–
"O=S(=O)(NCCCCc1c[nH]cn1)NCc1ccc(Br)cc1 [Example 45, N-[4-(4(5)-Imidazoyl)butyl]-N'-(4-bromophenyl)methyl-sulfamide]",0.00123,8.71,–,–,–
"O=S(=O)(NCCCCc1c[nH]cn1)NCC1CCCCC1 [Example 51, N-[4-(4(5)-Imidazoyl)butyl]-N'-cyclohexylmethyl-sulfamide]",0.0977,–,0.0794,–,–
"O=S(=O)(NCCCCCCCc1c[nH]cn1)NCc1ccc(Cl)cc1 [Example 38, N-[7-(4(5)-Imidazoyl)heptyl]-N'-(4-chlorophenyl)methyl-sulfamide]",0.00427,8.15,–,–,–
"O=S(=O)(NCCCCCCCCCCc1c[nH]cn1)c1ccc2ccccc2c1 [Example 31, N-[10-(4(5)-Imidazoyl)decyl]-2-naphthalenesulfonamide]",1.62,7.07,–,–,–
"O=S(=O)(NCCCCCCc1c[nH]cn1)NCc1ccc(F)cc1 [Example 59, N-[6-(4(5)-Imidazoyl)hexyl]-N'-(4-fluorophenyl)methyl-sulfamide]",0.00372,–,0.00832,–,–
"O=S(=O)(CCc1ccc(Cl)cc1)NCCCc1c[nH]cn1 [Example 53, N-[3-(4(5)-Imidazoyl)propyl]-2-(4-chlorophenyl)ethanesulfonamide]",0.182,–,–,0.0562,–
"O=S(=O)(NCCCCc1c[nH]cn1)NCc1ccc2ccccc2c1 [Example 50, N-[4-(4(5)-Imidazoyl)butyl]-N'-2-naphthylmethyl-sulfamide]",0.0186,–,0.0166,–,–
"C[C@H](Cc1c[nH]cn1)NS(=O)(=O)c1ccc2ccccc2c1 [Example 71, (R)-(+)-N-[2-(4(5)-Imidazoyl)-1-methyl-ethyl]-2-naphthalenesulfonamide]",–,8.44,–,–,0.776
"O=S(=O)(NCCCCCCc1c[nH]cn1)NCc1ccc(Cl)cc1 [Example 15, N-[6-(4(5)-Imidazoyl)hexyl]-N'-(4-chlorophenyl)methyl-sulfamide]",0.0017,8.36,–,–,–
"O=S(=O)(NCCc1c[nH]cn1)c1ccc2ccccc2c1 [Example 1, N-[2-(4(5)-Imidazoyl)ethyl]-2-naphthalenesulfonamide]",0.2,7.77,–,–,–
"O=S(=O)(NCCCCc1c[nH]cn1)NCc1ccc(I)cc1 [Example 44, N-[4-(4(5)-Imidazoyl)butyl]-N'-(4-iodophenyl)methyl-sulfamide]",0.00324,8.68,–,–,–
"O=S(=O)(NCCCCCc1c[nH]cn1)NCc1ccc(F)cc1 [Example 65, N-[5-(4(5)-Imidazoyl)pentyl]-N'-(4-fluorophenyl)methyl-sulfamide]",0.0479,–,0.0105,–,–
"CN(CCCCc1c[nH]cn1)S(=O)(=O)N(C)Cc1ccc(Cl)cc1 [Example 68, N'-(4-Chlorophenyl)methyl-N,N'-dimethyl-N-[4-(4(5)-imidazoyl)butyl]-sulfamide]",0.017,–,0.0112,–,–
"O=S(=O)(NCCCCc1c[nH]cn1)c1ccc2ccccc2c1 [Example 7, N-[4-(4(5)-Imidazoyl)butyl]-2-naphthalenesulfonamide]",0.155,7.42,–,–,–
"O=S(=O)(NCCCCCCc1c[nH]cn1)NCc1ccc(-c2ccccc2)cc1 [Example 62, N-[6-(4(5)-Imidazoyl)hexyl]-N'-(4biphenyl)methyl-sulfamide]",0.00741,–,0.00575,–,–
"O=S(=O)(NCCCCc1c[nH]cn1)NCc1ccc(Cl)c(Cl)c1 [Example 41, N-[4-(4(5)-Imidazoyl)butyl]-N'-(3,4-dichlorophenyl)methyl-sulfamide]",0.00389,–,0.00427,–,–
"O=S(=O)(Cc1ccc(Cl)cc1)NCCCCCCc1c[nH]cn1 [Example 11, N-[6-(4(5)-Imidazoyl)hexyl]-(4-chlorophenyl)methanesulfonamide]",0.00977,7.95,–,–,–
